Source: patent US11236120B2, “Azithromycin derivatives with epithelial barrier enhancement properties” (EpiEndo Pharmaceuticals ehf, priority 2015, dated 2022)
In brackets after ≈: the same amount, converted by molar mass.

Columns and labels:
Type in all cases: cell-based
[1] = tested on: Streptococcus pneumoniae (ATCC49619); test: Assay 1: antimicrobial broth dilution on microtiter plates, Streptococcus pneumoniae; conditions: Str
Protocol: (§1) The antimicrobial activity of each Example compound was investigated. The Minimal Inhibitory Concentration (MIC—the minimal dose required to inhibit bacterial growth) and the Minimal Bactericidal Concentration (MBC—the minimal dose required to kill bacteria) were measured for each compound for Streptococcus pneumoniae (ATCC49619), Staphylococcus aureus (ATCC29213), Bacillus megaterium (BM-11) and Escherichia coli (D-21) using an antimicrobial broth dilution method on microtiter plates. The Minimal Inhibitory Concentration (MIC) was also measured for each example compound and azithromycin with Mycobacterium avium complex (MAC). […]
(§2) The Minimal Inhibitory Concentration (MIC—the minimal dose required to inhibit bacterial growth) and the Minimal Bactericidal Concentration (MBC—the minimal dose required to kill bacteria) were measured for each compound for Streptococcus pneumoniae (ATCC49619), Staphylococcus aureus (ATCC29213), Bacillus megaterium (BM-11) and Escherichia coli (D-21) using an antimicrobial broth dilution method on 96 well microtiter plates. […]
(§3) After addition of the bacterial solution, the plates were incubated at 35° C. for 18 h. The bacterial growth of each well was then recorded and then the Minimal Inhibitory Concentration (MIC) and Minimal Bactericidal Concentration ([…]) were determined.

[2] = tested on: Staphylococcus aureus (ATCC29213); test: Assay 1: antimicrobial broth dilution on microtiter plates, Staphylococcus aureus; conditions: S. aureus (ATCC29213)
Protocol: as §1, §2, §3

[3] = tested on: Bacillus megaterium (BM-11); test: Assay 1: antimicrobial broth dilution on microtiter plates, Bacillus megaterium; conditions: Priestia megaterium
Protocol: as §1, §2, §3

Escherichia coli (D-21) = test: Assay 1: antimicrobial broth dilution on microtiter plates, Escherichia coli; conditions: E. coli (D-21)
Protocol: The antimicrobial activity of each Example compound was investigated. The Minimal Inhibitory Concentration (MIC—the minimal dose required to inhibit bacterial growth) and the Minimal Bactericidal Concentration (MBC—the minimal dose required to kill bacteria) were measured for each compound for Streptococcus pneumoniae (ATCC49619), Staphylococcus aureus (ATCC29213), Bacillus megaterium (BM-11) and Escherichia coli (D-21) using an antimicrobial broth dilution method on microtiter plates. The Minimal Inhibitory Concentration (MIC) was also measured for each example compound and azithromycin with Mycobacterium avium complex (MAC). Mycobacterium avium complex (MAC) is a term that covers both M. avium and M. intracellulare.
The antibacterial activities of example compounds 1 to 31 and azithromycin were investigated. The Minimal Inhibitory Concentration (MIC—the minimal dose required to inhibit bacterial growth) and the Minimal Bactericidal Concentration (MBC—the minimal dose required to kill bacteria) were measured for each compound for Streptococcus pneumoniae (ATCC49619), Staphylococcus aureus (ATCC29213), Bacillus megaterium (BM-11) and Escherichia coli (D-21) using an antimicrobial broth dilution method on 96 well microtiter plates.
A 256 μg/ml stock solution of each compound was prepared in Mueller-Hinton Broth and then further diluted by a 2-fold serial dilution. […]

[4] = tested on: Mycobacterium intracellulare; test: Assay 2: STC colorimetric microplate assay, M. intracellulare

Compound: CC[C@H]1OC(=O)[C@H](C)[C@@H](O[C@H]2C[C@@](C)(OC)[C@@H](O)[C@H](C)O2)[C@H](C)[C@@H](O[C@@H]2O[C@H](C)C[C@H](N(C)C)[C@H]2O)[C@](C)(O)C[C@@H](C)CN(C)[C@H](C)[C@@H](O)[C@]1(C)O [Azithromycin, (2R,3S,4R,5R,8R,10R,11R,12S,13S,14R)-11-[(2S,3R,4S,6R)-4-(dimethylamino)-3-hydroxy-6-methyl-tetrahydropyran-2-yl]oxy-2-ethyl-3,4,10-trihydroxy-13-[(2R,4R,5S,6S)-5-hydroxy-4-methoxy-4,6-dimethyl-tetrahydropyran-2-yl]oxy-3,5,6,8,10,12,14-heptamethyl-1-oxa-6-azacyclopentadecan-15-one]
- MBC [1]: 0.06 µg/mL (≈ 0.0801 µM)
- MIC [1]: 0.06 µg/mL (≈ 0.0801 µM)
- MBC [2]: 8 µg/mL (≈ 10.7 µM)
- MIC [2]: 2 µg/mL (≈ 2.67 µM)
- MBC [3]: 2 µg/mL (≈ 2.67 µM)
- MIC [3]: 1 µg/mL (≈ 1.34 µM)
- MBC (Escherichia coli (D-21)): 32 µg/mL (≈ 42.7 µM)
- MIC (Escherichia coli (D-21)): 4 µg/mL (≈ 5.34 µM)
- MIC ([4]; Mycobacterium intracellulare S1005200118): 32 µg/mL (≈ 42.7 µM)
- MIC ([4]; Mycobacterium intracellulare S1305150028): 4 µg/mL (≈ 5.34 µM)
